Source: US20230145200A1, “COMPOSITIONS AND METHODS OF TREATING CANCER” (Tillead Therapeutics, Inc., priority 2020, published 2023)
Changes are numbered by the printed parent chain. “Also recorded” adds a separate entry of the source.

Columns and labels:
MC38 cells [1] = test: Apoptosis flow cytometry assay (FITC Annexin V/PI); type: cell-based, murine; settings: for apoptosis induction in MC38 cells: agent alone: Venetoclax 3 μM, Doxorubicin 1 μM, Docetaxel 10 μM, Simvastatin 10 μM
Experimental: Cell lines and drugs: MC38 and B16 cell lines were derived from C57BL6 murine colon adenocarcinoma and melanoma cells, respectively. The cells were maintained in Dulbecco's modified Eagle's medium (DMEM) supplemented with 10% heat-inactivated fetal bovine serum (FBS) and 100 U/mL penicillin/streptomycin. The CT26 cells were derived from murine colon adenocarcinoma cells and cultured in RPMI1640 with 10% FBS and 2 mM GlutaMAX.
Apoptosis flow cytometry assay: FITC Annexin V Apoptosis Detection Kit with PI (BioLegend) was used for apoptosis detection. The MC38 cells were seeded in 24-well plate with 1×10^5 cells/well and cultured overnight. […] After 24 hours treatment, cells were collected and dissociated as single cell suspensions for Annexin V/PI staining. In briefing, cells were washed twice with cold BioLegend's Cell Staining Buffer, then resuspended in […] Annexin V Binding Buffer. […] FITC Annex V and […] Propidium Iodide (PI) Solution were added in each sample. The samples were gently vortexed and incubated for 15 minutes at room temperature in the dark. Wash the samples with Cell Staining Buffer one time and resuspend cells in […] Cell Staining Buffer for flow cytometry analysis. The data were recorded on BD Accuri™ C6 plus flow Cytometer and analyzed with FlowJo software.

IFNβ = test: Interferon-beta (IFNβ) ELISA assay of MC38 cell culture supernatants; type: cell-based, murine; settings: 24 hours
Experimental: The concentration of IFNβ was measured with VeriKine-HS Interferon Beta Serum ELISA Kit (PBL Assay Science) in accordance with the manufacturer's instruction. The data of absorbance was recorded at 450 nm by using BioTek synergy 4 plate reader and analyzed with GraphPad software.

caspase-3 [2] = target: T1, caspase-3 (Mus musculus, UniProt P70677); test: Caspase-3 activity assay in MC38 cells; type: cell-based, murine
T1 construct: the cells were lysed in 25 μL 1× lysis buffer on ice for 20 min; endogenous in cells; host or cells: MC38 cells (lysate)
T1 sequence (P70677 29-175 limits assumed): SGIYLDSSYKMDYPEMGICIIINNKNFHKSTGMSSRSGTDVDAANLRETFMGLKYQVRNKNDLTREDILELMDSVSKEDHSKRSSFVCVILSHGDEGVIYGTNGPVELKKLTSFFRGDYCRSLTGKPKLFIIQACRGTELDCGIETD
T1 sequence (P70677 176-277 limits assumed): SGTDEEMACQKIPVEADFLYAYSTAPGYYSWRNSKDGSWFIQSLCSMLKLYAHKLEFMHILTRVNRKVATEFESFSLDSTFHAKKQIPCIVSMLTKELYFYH
Experimental: Caspase-3 activity assay: Caspase-3 activity was measured by using Sigma Caspase 3 Assay Kit, Fluorimetric. In brief, MC38 cells were cultured in 96-well plates and treated with Docetaxel and Docetaxel/Emricasan combination, respectively. Dose-dependent effect of Docetaxel on caspase-3 activity was tested in MC38 cells; Docetaxel/Emricasan combination treatment was applied to reverse Docetaxel induced caspase-3 activity. After 24 h drug treatment, the cells were lysed in 25 μL 1× lysis buffer on ice for 20 min, then added 200 μL of 16.7 μM Ac-DEVD-AMC substrate solution to incubate at RT in the dark for 30 min. The fluorescent signals were read in BioTek Synergy 4 plate reader at excitation 360 nm and emission 460 nm.

MC38 cells [3] = test: Tumor cell killing / cytotoxicity, MC38 (FIG. 11a); type: cell-based, murine
A549 = test: Tumor cell killing / cytotoxicity, A549 (FIG. 11b); type: cell-based; settings: with 10 μM of emricasan
MiaPaca-2 = test: Tumor cell killing / cytotoxicity, MiaPaca-2 (FIG. 11c); type: cell-based; settings: with 10 μM of emricasan
PD-L1 = PD-L1 expression flow cytometry assay; type: cell-based, murine; settings: MC38 cells; 1 μM Docetaxel, 10 μM Emricasan, or the combination; 24 h; FIG. 21
Experimental: PD-L1 expression flow cytometry assay: Cell surface PD-L1 expression was detected by flow cytometry assay. The cells were plated in 24-well plates and treated with 1 μM Docetaxel, 10 μM Emricasan, and the combination of the two drugs. Untreated cells were used as a control. After 24 h of treatment, the cells were dissociated and harvested for PD-L1 staining with BioLegend PE anti-mouse PD-L1 antibody (MIH7 clone). The PD-L1 expression was measured in BD Accuri C6 Plus flow cytometer, The mean density of PD-L1 was analyzed by FlowJo V10 software.

MC38 model = test: In vivo tumor growth study, MC38 model; parameters: species or system mice
Experimental: (§1) In vivo studies: Female C57BL6 and Balb/C mice of 9 weeks of age were obtained from the Jackson lab, ME. Passages were made twice weekly with a 1:2 split and cultured in DMEM:F12 supplemented with 10% FBS (HyClone, Ft. Collins, Colo.). For inoculation, approximately 5-8×10^5 cells were suspended in 100 μL of PBS (Becton Dickinson Labware, Bedford, Mass.) and injected subcutaneously into the flanks of mice. Most mice developed palpable tumors within 5 days of inoculation. Tumor bearing mice are grouped in cohorts of 5-8 mice for dosing studies. Mice with tumor sizes of 50-100 mm^3 are randomized between treatment groups. Baseline tumor volumes were established and dosing initiation began on day 0. Emricasan was administered as a salt intratumorally or interperitoneally for 3-4 days. If docetaxel was used, it was administered interperitoneally or intravenously in Tween80/PEG300 or Tween80/ethanol with PBS the day before emricasan was given. Emricasan and docetaxel were co-formulated in Tween80/PEG300 and co-administered intratumorally after diluting with PBS. Tumor volumes were measured twice a week using standard calipers and calculated as […], with the length and width defined as the long and short axes, respectively. Measurement of body weight was initiated on day 0 and repeated once a week.

caspase-3 [4] = target: T2, caspase-3 (Homo sapiens, UniProt P42574); test: Caspase activity in A549 tumor cells (FIG. 10b); type: cell-based; parameters: endogenous in cells; host or cells: A549 cells
T2 sequence (P42574 29-175 limits assumed): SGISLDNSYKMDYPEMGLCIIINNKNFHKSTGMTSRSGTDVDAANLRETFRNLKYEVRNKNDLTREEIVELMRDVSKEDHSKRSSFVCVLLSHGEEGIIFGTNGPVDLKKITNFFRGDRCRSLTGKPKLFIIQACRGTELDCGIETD
T2 sequence (P42574 176-277 limits assumed): T1 sequence (P70677 176-277 limits assumed) with T3V, E5D, E6D, Q10H, S46A, L50Q, H53D, L77F, S79A

caspase-3 [5] = target: T2, caspase-3; test: Caspase activity in MiaPaca-2 tumor cells (FIG. 10c); type: cell-based; parameters: endogenous in cells; host or cells: MiaPaca-2 cells
B16 model = test: In vivo tumor growth study, B16 model; parameters: species or system mice; settings: emricasan amine salt intratumorally 5 mpk and 10 mpk q.d 4 days, FIG. 19
Experimental: as §1, with “Mice with tumor sizes of 50-100 mm^3 are randomized between treatment groups.” left out

CT26 model = test: In vivo tumor growth study, CT26 model; parameters: species or system mice; settings: emricasan amine salt intratumorally 5 mpk and 10 mpk q.d 4 days, FIG. 20
Experimental: as §1, with “Mice with tumor sizes of 50-100 mm^3 are randomized between treatment groups.” left out

[6] = agent alone: simvastatin 10 μM, venetoclax 3 μM, doxorubicin 1 μM, docetaxel 10 μM

CC(=O)O[C@@]12CO[C@@H]1C[C@H](O)[C@@]1(C)C(=O)[C@H](O)C3=C(C)[C@@H](OC(=O)[C@H](O)[C@@H](NC(=O)OC(C)(C)C)c4ccccc4)C[C@@](O)([C@@H](OC(=O)c4ccccc4)[C@H]21)C3(C)C [docetaxel]
apoptosis induction in MC38 cells (MC38 cells [1]; 24 hours): induced substantial apoptosis | IFNβ production in MC38 cells (IFNβ; [6]): slightly reduced IFNβ production | docetaxel concentration activating caspase most efficiently (caspase-3 [2]; MC38 cells, 24 h, FIG. 10a): ~1 µM | docetaxel concentration killing tumor cells more efficiently (MC38 cells [3]; MC38, with 10 μM of emricasan, FIG. 11a): ~1 µM | cytotoxicity in several tumor cells (MC38 cells [3]; several tumor cells (FIG. 11a-c: MC38, A549, MiaPaca-2)): showed cytotoxicity | docetaxel concentration killing tumor cells more efficiently (A549): ~1 µM | docetaxel concentration killing tumor cells more efficiently (MiaPaca-2): ~1 µM | PD-L1 expression on tumor cells (PD-L1): upregulating PD-L1 expression | tumor control, systemic docetaxel added to intratumoral emricasan (MC38 model; docetaxel 30 mpk single dose intraperitoneal (FIG. 14) or intravenous (FIG. 15), emricasan intratumoral 10 mpk q.d 3-4 days after docetaxel): improved tumor control of emricasan | docetaxel concentration activating caspase most efficiently (caspase-3 [4]; A549): ~1 µM | docetaxel concentration activating caspase most efficiently (caspase-3 [5]; MiaPaca-2): ~1 µM

COc1cccc2c1C(=O)c1c(O)c3c(c(O)c1C2=O)C[C@@](O)(C(=O)CO)C[C@@H]3O[C@H]1C[C@H](N)[C@H](O)[C@H](C)O1 [doxorubicin]
apoptosis induction in MC38 cells (MC38 cells [1]; 24 hours): induced substantial apoptosis | IFNβ production in MC38 cells (IFNβ; [6]): slightly reduced IFNβ production

C[C@H](NC(=O)C(=O)Nc1ccccc1C(C)(C)C)C(=O)N[C@@H](CC(=O)O)C(=O)COc1c(F)c(F)cc(F)c1F [emricasan, (S)-3-((S)-2-(2-((2-(tert-butyl)phenyl)amino)-2-oxoacetamido)propanamido)-4-oxo-5-(2,3,5,6-tetrafluorophenoxy)pentanoic acid]
apoptosis induced by docetaxel (MC38 cells [1]; addition of 10 μM emricasan to Docetaxel 10 μM, 24 hours, FIG. 5): significantly reduced the apoptosis | apoptosis induced by doxorubicin (MC38 cells [1]; addition of 10 μM emricasan to Doxorubicin 1 μM, 24 hours, FIG. 4): significantly reduced the apoptosis | apoptosis induced by simvastatin (MC38 cells [1]; addition of 10 μM emricasan to Simvastatin 10 μM, 24 hours, FIG. 2): significantly reduced the apoptosis | apoptosis induced by venetoclax (MC38 cells [1]; addition of 10 μM emricasan to Venetoclax 3 μM, 24 hours, FIG. 3): significantly reduced the apoptosis | apoptosis in MC38 cells (MC38 cells [1]; emricasan alone, 24 hours treatment, FIG. 1): partially blocked the apoptosis | IFNβ production in docetaxel treated MC38 cells (IFNβ; addition of 10 μM emricasan to docetaxel 10 μM, FIG. 9): significantly enhanced the IFNβ production | IFNβ production in doxorubicin treated MC38 cells (IFNβ; addition of 10 μM emricasan to doxorubicin 1 μM, FIG. 8): significantly enhanced the IFNβ production | IFNβ production in simvastatin treated MC38 cells (IFNβ; addition of 10 μM emricasan to simvastatin 10 μM, FIG. 7): significantly enhanced the IFNβ production | IFNβ production in MC38 cells (IFNβ; emricasan alone, FIG. 6): slightly enhanced the IFNβ production | inhibition of caspase activity in tumor cells (caspase-3 [2]; 10 μM of emricasan, docetaxel-treated MC38 cells, FIG. 10a): fully inhibiting the caspase activity | concentration at which emricasan began to effectively inhibit the caspase-3 activity (caspase-3 [2]; tumor cells, FIG. 10a-c): ~1 µM | concentration at which emricasan reached the maximum activity (caspase-3 inhibition) (caspase-3 [2]; tumor cells, FIG. 10a-c): ~10 µM | PD-L1 expression on tumor cells (PD-L1): upregulated the PD-L1 expression | rejection of rechallenged tumor in cured mice (MC38 model; cured mice from the FIG. 15 study, rechallenged, FIG. 16): able to reject rechallenged tumor; also recorded: able to reject rechallenged tumors more efficiently | systemic tumor control, systemic emricasan added to intravenous docetaxel (MC38 model; docetaxel intravenous 50 mpk single dose, emricasan intraperitoneal 20 mpk b.i.d 3 days after docetaxel, FIG. 18): improved the systemic tumor control of intravenously administered docetaxel | distal tumor control (MC38 model; emricasan alone intratumorally 10 mpk q.d 4 days, FIG. 13): moderate | tumor control at the site of injection (MC38 model; emricasan alone intratumorally 10 mpk q.d 4 days, small MC38 tumors (~50 mm^3), FIG. 12): able control small MC38 tumors | number of cured mice (MC38 model; study of FIG. 15: docetaxel intravenous 30 mpk single dose, emricasan intratumoral 10 mpk q.d 4 days): 5 mice | tumor control efficacy (B16 model): produced tumor control efficacy | tumor control efficacy (CT26 model): produced tumor control efficacy | inhibition of caspase activity in tumor cells (caspase-3 [4]; 10 μM of emricasan, docetaxel-treated A549): fully inhibiting the caspase activity | inhibition of caspase activity in tumor cells (caspase-3 [5]; 10 μM of emricasan, docetaxel-treated MiaPaca-2): fully inhibiting the caspase activity
